According to patent publication US11752156B2, “Compositions and methods for treating hyperproliferative skin disorders” (Athenex HK Innovative Limited, priority 2018, dated 2023):
Where “and” joins values, the source holds several entries; their conditions need not be identical. Equal entries are not always repeated. Where two headings read alike, the source gives them in different places.

How the values were obtained:
[1] = system: human keratinocytes in culture (cell line CCD-1106 KERTr); test: cell viability / cell growth of human keratinocytes in culture, KX01, calcipotriol and fixed-ratio combinations; assay type: cell-based; design: cell growth (cell viability): unit not given here; conditions: for viability at 0.003 µM: CCD-1106, concentration 3 nM; for viability at 0.009 µM: CCD-1106, concentration 9 nM; for viability at 0.027 µM: CCD-1106, concentration 27 nM; for viability at 0.243 µM: CCD-1106, concentration 243 nM; for viability at 0.729 µM: CCD-1106, concentration 729 nM; for viability at 2.187 µM: CCD-1106, concentration 2187 nM
Text: Typical data from studies of the effects of compound KX01 provided in combination with calcipotriol on growth of human keratinocytes in culture (cell line CCD-1106 KERTr) are shown in FIGS. 1 to 3 and Tables 1 to 6. FIG. 1 and Tables 1 and 2 show the degree of growth inhibition found in a typical study performed with KX01 and calcipotriol at a 1:5 ratio.

[2] = system: human keratinocyte cell line; test: inhibition of human keratinocyte growth, individual dose response, 72 hours, MTT assay; assay type: cell-based; conditions: 72 hour exposure
Method: FIG. 4: Inhibition of human keratinocyte growth versus KX01 concentration (treatment duration: 72 hours; cell growth measured using the MTT assay). […] FIG. 5: Inhibition of human keratinocyte growth versus calcipotriol concentration (treatment duration: 72 hours; cell growth measured using the MTT assay). […] A human keratinocyte cell line was used in these studies.

[3] = system: human keratinocyte cell line; test: combinatorial dose response surface study of cell viability (PSI), KX01 and calcipotriol; assay type: cell-based; conditions: model estimate
Text: FIG. 6: Dose response surface of cell viability versus calcipotriol concentration versus KX01 concentration. Synergistic combinations of calcipotriol and KX01 are below the surface of additivity (indicating enhanced inhibition of growth), and antagonistic combinations are above the surface of additivity (indicative of reduced inhibition of growth). Individual dose response curves for KX01 and calcipotriol as determined above can be used to generate dose response surfaces representative of the additive effects of these compounds on keratinocyte growth. […] A PSI value of 1 corresponds to an additive effect. A PSI value of less than 1 indicates a synergistic effect, and a PSI value of greater than 1 indicates an antagonistic effect. Cell viability was measured in a number of experiments. In Experiment 1, the concentrations of calcipotriol were: 0, 3, 9, 27, 81, and 243 nM, and the concentrations of KX01 were: 0, 5, 10, 20, 40, 60, 80, and 160 nM. In Experiment 2, the concentrations of calcipotriol were: 0, 5, 10, 20, 40, 80, 160, 320, and 1280 nM, and the concentrations of KX01 were: 1, 3, 9, 27, and 81 nM. […] It is notable that unexpected synergy is observed across a range of concentrations and combinations. Tables 7, 8, and 9 show the results for determination of individual IC50 and maximum inhibitory concentration values for KX01 and calcipotriol, as well as the PSI value for the drug combination. […]

CCD-1106 KERTr cells = test: FITC annexin V / PI apoptosis assay by flow cytometry, 24 hours; assay type: cell-based, human; conditions: for late apoptic cells: 24 hours
Method: In addition to growth inhibition, Inventors also investigated the effect of KX01 on apoptosis in keratinocytes. CCD-1106 KERTr cells (1×10^6) were seeded in 60 mm dishes and treated with test compounds at varying concentrations (e.g. KX01: 20 to 500 nM; calcipotriol 50 to 1000 nM) for 24 hours. Cell apoptosis was assessed by using a FITC annexin V apoptosis detection kit (BD Biosciences™) according to manufacturer's instruction. Briefly, cells were collected in 1× binding buffer and incubated with fluorescein isothiocyanate (FITC)-conjugated annexin V and propidium iodide (PI) for 15 minutes at room temperature in the dark, followed by flow cytometry analysis using a LSRFortessa™ flow cytometer (BD Biosciences™).

[4] = system: cell proliferation/growth; test: combined treatment with KX01 and tazarotene, inhibition of cell proliferation/growth; assay type: cell-based
Text: Examples of suitable retinoids include retinol, retinal, retinoic acid isotretinoin, alitreninoin, etretinate, acitretin, adapalene, bexarotene, and/or tazarotene. FIGS. 7 and 8 show the effects of tazarotene on growth of cells in culture, including CCD-1106 KERTr keratinocytes (FIG. 7) and A431 cells (epidermoid cells obtained from a human squamous cell carcinoma, FIG. 8).

SRC-kinase = SRC-kinase (Homo sapiens, UniProt P12931); conditions: cited from earlier work
tubulin polymerization = conditions: cited from earlier work
apoptosis by G2/M arrest = conditions: cited from earlier work
[5] = concentration 2187 nM, 2.187 µM

Chain of SRC-kinase (P12931 whole entry): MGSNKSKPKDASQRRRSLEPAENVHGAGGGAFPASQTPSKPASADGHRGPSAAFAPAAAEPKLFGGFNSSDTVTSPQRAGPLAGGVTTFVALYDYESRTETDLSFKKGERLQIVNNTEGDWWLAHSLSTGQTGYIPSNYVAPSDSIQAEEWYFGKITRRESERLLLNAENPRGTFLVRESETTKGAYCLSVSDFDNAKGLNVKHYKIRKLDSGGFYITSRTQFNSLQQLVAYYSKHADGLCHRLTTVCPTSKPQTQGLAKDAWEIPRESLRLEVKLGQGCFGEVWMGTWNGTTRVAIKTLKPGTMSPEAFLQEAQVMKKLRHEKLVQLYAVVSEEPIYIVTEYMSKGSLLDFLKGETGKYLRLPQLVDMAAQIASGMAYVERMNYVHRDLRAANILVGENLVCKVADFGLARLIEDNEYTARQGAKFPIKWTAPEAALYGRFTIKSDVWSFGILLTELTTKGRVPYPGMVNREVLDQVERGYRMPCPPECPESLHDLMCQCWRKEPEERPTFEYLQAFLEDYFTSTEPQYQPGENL

Row | Structure (SMILES) | GI50 [1] | GI50 ([1]; Homo sapiens, CCD-1106) [nM] | viability at 0.003 µM ([1]; Homo sapiens) [%] | viability at 0.009 µM ([1]; Homo sapiens) [%] | viability at 0.027 µM ([1]; Homo sapiens) [%] | viability at 0.243 µM ([1]; Homo sapiens) [%] | viability at 0.729 µM ([1]; Homo sapiens) [%] | viability at 2.187 µM ([1]; Homo sapiens) [%] | cell growth (cell viability) ([1]; concentration 3 nM, 0.003 µM) | cell growth (cell viability) ([1]; concentration 9 nM, 0.009 µM) | cell growth (cell viability) ([1]; concentration 27 nM, 0.027 µM) | cell growth (cell viability) ([1]; concentration 729 nM, 0.729 µM) | cell growth (cell viability) [1, 5] | IC50 [2] [nM] | IC50 ([3]; Homo sapiens, Keratinocyte) [nM] | IC50 [3] | Max Inhibition [3] | also measured
1 | C=C1/C(=C\C=C2/CCC[C@]3(C)[C@@H]([C@H](C)/C=C/[C@@H](O)C4CC4)CC[C@@H]23)C[C@@H](O)C[C@@H]1O [Calcipotriol, calcipotriol] | 310 nM and 339 nM | 265 | 94 | 89.9 | 70.5 | 47.3 | 47 | 44.8 | 95.3 and 96.1 | 88.8 and 89.7 | 72.5 and 70.1 | 47.1 and 48.7 | 46.7 and 48.3 | 95.5 | 112 | 59.3 nM | 0.474 and 0.36 and 0.439 | viability at 0.081 µM ([1]; Homo sapiens, CCD-1106, concentration 81 nM): 49.4%; viability at 6.561 µM ([1]; Homo sapiens, CCD-1106, concentration 6561 nM): 19.2%; cell growth (cell viability) ([1]; concentration 81 nM, 0.081 µM): 53.2 and 52.8; cell growth (cell viability) ([1]; concentration 243 nM, 0.243 µM): 47.7 and 51.0; cell growth (cell viability) ([1]; concentration 6561 nM, 6.561 µM): 25.2 and 26.5; effect on apoptosis compared with control cells (CCD-1106 KERTr cells; 200 nm calcipotriol): not distinguishable from that of control cells receiving no drug treatment; late apoptic cells (CCD-1106 KERTr cells; calcipotriol 50 nM): 2.41%; late apoptic cells (CCD-1106 KERTr cells; calcipotriol 200 nM): 2.06%; late apoptic cells (CCD-1106 KERTr cells; calcipotriol 500 nM): 4.13%; late apoptic cells (CCD-1106 KERTr cells; calcipotriol 1,000 nM): 4.19%
2 | O=C(Cc1ccc(-c2ccc(OCCN3CCOCC3)cc2)cn1)NCc1ccccc1 [KX01, N-benzyl-2-(5-{4-[2-(morpholine-4-yl)ethoxy]phenyl}pyridine-2-yl)acetamide] | 38 nM and 36 nM | 32 | 90.9 | 94.7 | 67.1 | 2.07 | 6.66 | 8.91 | 100.0 and 96.6 | 100.2 and 98.2 | 79.8 and 80.1 | 9.9 and 7.3 | 14.9 and 9.5 | 41.9 | 41.3 | 32.8 nM and 47 nM | 0.856 and 0.77 and 0.741 | viability at 0.000333 µM ([1]; Homo sapiens, CCD-1106, concentration 0.333 nM): 100%; viability at 0.001 µM ([1]; Homo sapiens, CCD-1106, concentration 1 nM): 97%; cell growth (cell viability) ([1]; concentration 0.333 nM, 0.000333 µM): 102.3 and 98.0; cell growth (cell viability) ([1]; concentration 1 nM, 0.001 µM): 99.9 and 101.3; H [4]: 3.3; IC50 [4]: 45 nM; Imax [4]: 0.92; late apoptic cells (CCD-1106 KERTr cells; KX01 20 nM): 2.09%; late apoptic cells (CCD-1106 KERTr cells; KX01 40 nM): 3.50%; late apoptic cells (CCD-1106 KERTr cells; KX01 100 nM): 6.33%; late apoptic cells (CCD-1106 KERTr cells; KX01 500 nM): 4.34%; SRC-kinase inhibition (SRC-kinase): inhibit SRC-kinase; inhibition of tubulin polymerization (tubulin polymerization): inhibits tubulin polymerization; induction of apoptosis (apoptosis by G2/M arrest): induces apoptosis by G2/M arrest
